Assay results published in patent EP0311616B1, “COMBINATIONS OF GAMMA INTERFERONS AND ANTI-INFLAMMATORY OR ANTI-PYRETIC AGENTS FOR TREATING DISEASES” (BIOGEN, INC., priority 1986, dated 1987).
Where two headings read alike, the source gives them in different places.

Legend:
BL/MEX6 human melanoma = test: six day Subrenal Capsule Assay, tumor xenograft implanted under the renal capsule of normal immunocompetent mice; type: in vivo; details: for Avg. Δ Tumor Size (mean ± S.D.): change Day 6-Day 0; for Tumor Response: summary of Examples 1-3, IFN-γ i.m., cortisone and prednisone s.c., all other agents p.o., b.i.d., QD1-5, significance of inhibition vs control
Description: (§1) In each example, following the standardized protocol for the Subrenal Capsule™ Assay [A.E. Bogden, P.M. Haskell, D.J. LePage, D.E. Kelton, W.R. Cobb, H.J. Esber, "Growth Of Human Tumor Xenografts Implanted Under The Renal Capsule Of Normal Immunocompetent Mice", Exp. Cell Biology, 47, pp. 281-93 (1979)], we implanted BL/MEX6 human melanoma established in serial transplantation (Bogden Laboratories) under the renal capsule of normal, immunocompetent mice (BALB/c × DBA/2) F₁ (CDF₁) (Examples 1 and 2) and into (B6C3F₁) mice (Example 3). Each mouse weighed approximately 25 grams. We then divided the mice into treatment groups as follows: group 1: 10 mice, groups 2-7: 8 mice each.
Over a five-day period, we treated each of groups 4-7 of mice with one of the following anti-inflammatory agents or anti-pyretic agents, either singly or in combination with IFN-γ (IFN-γ dosage: 2,000 µg/Kg/inj., b.i.d., i.m.):
The anti-inflammatory agents or anti-pyretic agents were administered prior to IFN-γ in all combination treatment groups. In each example, we treated groups 1-3 of mice as follows: Group 1: 0.25 ml/inj., b.i.d., i.m. PBS (vehicle treated control) Group 2: 400 mg/Kg/inj., s.c. DTIC [dacarbazine] (positive chemotherapy control) Group 3: 2,000 µg/Kg/inj., b.i.d., i.m. IFN-γ
(§2) In each example, for each mouse, we recorded initial body weight, implanted a tumor and recorded an initial in situ tumor measurement (two diameters) in ocular micrometer units (omu). We administered treatment on days 1-5. Survivors were recorded and any mice dying prior to sacrifice were necropsied. On day 6, the mice were sacrificed, final body weights were recorded, implanted kidneys were removed and final in situ tumor measurements were made to determine tumor growth inhibition or regression. We calculated the ratio of average final body weight to initial body weight (FBW/IBW) to monitor systemic toxicity. Change in (Δ) tumor size between day of sacrifice (day 6) and day of tumor implant (day 0) was calculated individually and for each group.

[1] = day 6
Description: as §1, §2

[2] = Example 2, (BALB/c × DBA/2) F1 (CDF1) mice, treatment QD1-5 at doses of Table III
[3] = Example 2, CDF1 mice, treatment QD1-5 at doses of Table III, day 6
[4] = Example 2, CDF1 mice, treatment QD1-5 at doses of Table III
[5] = Example 3, (B6C3F1) mice, treatment QD1-5 at doses of Table V
[6] = Example 3, B6C3F1 mice, treatment QD1-5 at doses of Table V, day 6
[7] = Example 3, B6C3F1 mice, treatment QD1-5 at doses of Table V
[8] = Example 1, (BALB/c × DBA/2) F1 (CDF1) mice, treatment QD1-5 at doses of Table I
[9] = Example 1, CDF1 mice, treatment QD1-5 at doses of Table I, day 6
[10] = Example 1, CDF1 mice, treatment QD1-5 at doses of Table I

SMILES | Avg. Δ Tumor Size (mean ± S.D.) (BL/MEX6 human melanoma; [2]) | Percent Test/Control (BL/MEX6 human melanoma; [3]) | Test-Control (Δ tumor size (test) minus Δ tumor size (control), degree of tumor inhibition) (BL/MEX6 human melanoma; [3]) | Tumor Response (BL/MEX6 human melanoma) | FBW/IBW (Final Body Weight/Initial Body Weight) [1, 4] | Avg. Δ Tumor Size (mean ± S.D.) (BL/MEX6 human melanoma; [5]) | Percent Test/Control (BL/MEX6 human melanoma; [6]) | Test-Control (Δ tumor size (test) minus Δ tumor size (control), degree of tumor inhibition) (BL/MEX6 human melanoma; [6]) | FBW/IBW (Final Body Weight/Initial Body Weight) [1, 7] | Avg. Δ Tumor Size (mean ± S.D.) (BL/MEX6 human melanoma; [8]) | Percent Test/Control (BL/MEX6 human melanoma; [9]) | Test-Control (Δ tumor size (test) minus Δ tumor size (control), degree of tumor inhibition) (BL/MEX6 human melanoma; [9]) | R = regression from original size using the formula FTS (final tumor size)-ITS (initial tumor size)/ITS x 100 (BL/MEX6 human melanoma; Example 2, CDF1 mice, printed as R plus number in the Percent Test/Control column, day 6) | R = regression from original size using the formula (FTS-ITS)/ITS x 100 (BL/MEX6 human melanoma; Example 3, B6C3F1 mice, printed as R plus number in the Percent Test/Control column, day 6) | FBW/IBW (Final Body Weight/Initial Body Weight) [1, 10]
CC(=O)Oc1ccccc1C(=O)O [ASA, acetyl salicylic acid] | 3.2±1.95 omu | 80% | -0.80 omu | - | 0.93 |  |  |  |  |  |  |  |  |  | 
CC(=O)Nc1ccc(O)cc1 [Acetaminophen] | 1.9±1.46 omu | 48% | -2.10 omu | ++ (Significant inhibition p<0.01) |  |  |  |  |  |  |  |  |  |  | 
C[C@]12CCC(=O)C=C1CC[C@@H]1[C@@H]2C(=O)C[C@@]2(C)[C@H]1CC[C@]2(O)C(=O)CO [Cortisone] |  |  |  | + (Significant inhibition p<0.05) |  | 1.3±1.73 omu | 37% | -2.20 omu | 0.96 |  |  |  |  |  | 
CN(C)/N=N/c1[nH]cnc1C(N)=O [DTIC, dacarbazine] | -0.2±0.70 omu |  | -4.20 omu |  | 0.81 | -0.2±1.00 omu |  | -3.70 omu | 0.81 | 0.5±0.7 omu | 14% | -3.20 omu | R2% | R2% | 0.86
COc1ccc2c(c1)c(CC(=O)O)c(C)n2C(=O)c1ccc(Cl)cc1 [Indomethacin] |  |  |  | - |  |  |  |  |  | 3.1±1.69 omu | 84% | -0.60 omu |  |  | 0.98
COc1ccc2cc([C@H](C)C(=O)O)ccc2c1 [Naproxen] |  |  |  | - |  |  |  |  |  | 2.8±1.28 omu | 76% | -0.90 omu |  |  | 0.99
C[C@]12C=CC(=O)C=C1CC[C@@H]1[C@@H]2C(=O)C[C@@]2(C)[C@H]1CC[C@]2(O)C(=O)CO [Prednisone] |  |  |  | ++ (Significant inhibition p<0.01) |  | 0.6±1.57 omu | 17% | -2.90 omu |  |  |  |  |  |  | 
